Experimental data taken from patent publication US8664217B2, “Benzodiazepine compound and pharmaceutical composition” (Otsuka Pharmaceutical Co., Ltd., priority 2008, dated 2014).
pIC50: −log10 of the molar value. Structures can show the parent of a compound that is named as a salt.

Target: T1, human Kv1.5 channels (Homo sapiens, UniProt P22460)
T1 construct: Full-length human Kv1.5 cDNA was cloned from a human heart cDNA library; expressed in transfected cells; host or cells: CHO-K1
Experiment: Measurement of human Kv1.5 channel current by whole-cell patch clamp method (human Kv1.5-expressing CHO-K1 cell line)
Format: cell-based
Details: human Kv1.5-expressing CHO-K1 cells, step end current at +40 mV, test compound 0.1, 1, 10 μM
Procedure: Pharmacological Test 1 (1) Production of Human Kv1.5-Expressing CHO-K1 Cell Lines
CHO-K1 cell lines stably expressing human Kv1.5 channels were prepared in the following manner.
Full-length human Kv1.5 cDNA was cloned from a human heart cDNA library (produced by Stratagene). The obtained human Kv1.5 sequence corresponds to the sequence described in FASEB J. 5, 331-337 (1991).
The obtained human Kv1.5 cDNA was inserted into a plasmid encoding a CMV promoter and a G418 resistance marker to produce a Kv1.5 expression vector. The human Kv1.5 expression vector was transfected into CHO-K1 cells by the lipofectamine method. After culturing the cells in an F-12 medium (produced by Invitrogen Corp.) containing 10% FBS (produced by Invitrogen Corp.) for 3 or 4 days, the medium was replaced with a FBS-containing F-12 medium that included 1,000 μg/ml of G418 (produced by Invitrogen Corp.), and single colonies were isolated. The amount of Kv1.5 channel expression in the single colonies was quantified at the mRNA level by RT-PCR and then quantified at the protein level by western blotting. Finally, the expressed current was analyzed by patch clamp method. Cell lines expressing a current of 200 pA or more per cell were selected as channel-expressing cell lines for activity measurement by patch clamp method.
(3) Measurement of Ion Channel Current by Patch Clamp Method (Human Kv1.5-Expressing CHO-K1 Cell Line)
An experiment was carried out using a patch clamp setup at room temperature (20 to 26° C.). A perfusion chamber having a diameter of 20 mm (flow rate: about 5 ml/min) was mounted on the stage of a phase-contrast inverted microscope (produced by Nikon Corporation) placed on a vibration isolated table. A poly-L-lysine (produced by Sigma)-coated coverslip (diameter: 15 mm, produced by Matsunami Glass Ind., Ltd.) on which human Kv1.5-expressing cells were cultured was placed in the perfusion chamber.
Depolarizing stimulation pulses were applied and ionic current was recorded by using a patch clamp amplifier (EPC-7 or EPC-7 PLUS, produced by HEKA) and a personal computer (manufactured by IBM Corp.) in which software for data acquisition and analysis of ion channel current (PULSE 8.77, produced by HEKA) was installed. The current was measured in the whole-cell configuration of the patch-clamp technique. The tip (resistance: 2 to 4 MΩ) of a borosilicate glass pipette (produced by Sutter Instrument Co.) was gently placed on the cell membrane by using a three-dimensional mechanical micromanipulator (produced by Shoshin EM Corporation). […] Subsequently, stronger suction was applied to break the cell membrane. The capacitative current derived from the cell membrane was corrected using a patch clamp amplifier. Subsequently, the series resistance (Rs) between the pipette and the interior of the cell was measured and corrected.
The composition of the extracellular solution used is shown below. Unless otherwise specified, these components were obtained from Wako Pure Chemical Industries, Ltd.
Each test compound was prepared as a 1000-fold concentrated stock solution that was dissolved in DMSO and then diluted in the extracellular solution.
The composition of the electrode internal solution used is shown below. Unless otherwise specified, these components were obtained from Wako Pure Chemical Industries, Ltd.
(5) Measurement of Human Kv1.5 Current
While the membrane potential was bolded at −80 mV, depolarizing pulses (−80 mV for 0.05 seconds→+40 mV for 0.2 seconds →−40 mV for 0.2 seconds→−80 mV for 0.05 seconds) were applied at a stimulation frequency of 1 Hz to measure Kv1.5 channel current. More specifically, first, while perfusing an extracellular solution containing 0.1% DMSO and holding the membrane potential at −80 mV, depolarizing pulses were applied. The current obtained during the pulse application was recorded as a current in the absence of the test compounds. […]

T1 sequence (P22460 whole entry): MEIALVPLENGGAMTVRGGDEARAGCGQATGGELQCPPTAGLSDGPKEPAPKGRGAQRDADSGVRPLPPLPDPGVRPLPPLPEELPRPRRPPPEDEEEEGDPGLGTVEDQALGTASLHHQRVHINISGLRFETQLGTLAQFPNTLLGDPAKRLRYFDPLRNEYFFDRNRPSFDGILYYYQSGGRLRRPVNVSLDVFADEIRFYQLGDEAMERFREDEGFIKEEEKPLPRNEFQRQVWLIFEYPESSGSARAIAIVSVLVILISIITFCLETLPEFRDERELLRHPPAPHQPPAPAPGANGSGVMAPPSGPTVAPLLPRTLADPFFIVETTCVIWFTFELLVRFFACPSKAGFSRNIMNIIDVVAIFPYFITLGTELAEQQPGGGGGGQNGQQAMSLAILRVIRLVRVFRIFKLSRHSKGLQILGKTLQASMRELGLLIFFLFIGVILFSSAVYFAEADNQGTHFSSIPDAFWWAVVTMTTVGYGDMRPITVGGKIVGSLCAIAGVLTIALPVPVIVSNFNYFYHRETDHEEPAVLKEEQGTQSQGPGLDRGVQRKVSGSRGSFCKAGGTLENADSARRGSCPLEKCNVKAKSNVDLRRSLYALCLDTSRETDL

pIC50 | Structure (SMILES)
6.16 | CN(CCN(CCCOc1ccc2c(c1)N(C)C(=O)C(C)(C)C(=O)N2C)Cc1ccncc1)C(=O)c1ccccc1 [Example 45, N-methyl-N-(2-{pyridin-4-ylmethyl-[3-(1,3,3,5-tetramethyl-2,4-dioxo-2,3,4,5-tetrahydro-1H-benzo[b][1,4]diazepin-7-yloxy)propyl]amino}ethyl)benzamide dihydrochloride]
6.44 | CCN1C(=O)C(C)(C)C(=O)N(C)c2cc(OCCCN(CCn3ccc4ccccc4c3=O)S(=O)(=O)c3ccccc3)ccc21 [Example 634, N-[3-(1-ethyl-3,3,5-trimethyl-2,4-dioxo-2,3,4,5-tetrahydro-1H-benzo[b][1,4]diazepin-7-yloxy)propyl]-N-[2-(1-oxo-1H-isoquinolin-2-yl)ethyl]benzenesulfonamide]
6.36 | CCN1C(=O)C(C)(C)C(=O)N(C)c2cc(OCCCN(CCn3ccc4occc4c3=O)Cc3cccnc3C)ccc21 [Example 575, 1-ethyl-3,3,5-trimethyl-7-(3-{(2-methylpyridin-3-ylmethyl)-[2-(4-oxo-4H-furo[3,2-c]pyridin-5-yl)ethyl]-amino}propoxy)-1,5-dihydrobenzo[b][1,4]diazepine-2,4-dione]
6.51 | CCCc1ncccc1CN(CCCOc1ccc2c(c1)N(C)C(=O)C(C)(C)C(=O)N2CC)CCn1ccc2oc(C)cc2c1=O [Example 611, 1-ethyl-3,3,5-trimethyl-7-{3-[[2-(2-methyl-4-oxo-4H-furo[3,2-c]pyridin-5-yl)ethyl]-(2-propylpyridin-3-ylmethyl)amino]propoxy}-1,5-dihydrobenzo[b][1,4]diazepine-2,4-dione dihydrochloride]
6.82 | CCN1C(=O)C(C)(C)C(=O)N(C)c2cc(OCCCN(CCn3ccc4ccccc4c3=O)Cc3ccc(C#N)cc3)ccc21 [Example 85]
6.66 | CCN1C(=O)C(C)(C)C(=O)N(C)c2cc(OCCCN(CCn3ccc4ccoc4c3=O)Cc3ccccc3C)ccc21 [Example 398]
6.01 | CCN1C(=O)C(C)(C)C(=O)N(C)c2cc(OCCCN(CCc3cccnc3)S(=O)(=O)c3ccccc3)ccc21 [Example 628, N-[3-(1-ethyl-3,3,5-trimethyl-2,4-dioxo-2,3,4,5-tetrahydro-1H-benzo[b][1,4]diazepin-7-yloxy)propyl]-N-(2-pyridin-3-ylethyl)benzenesulfonamide hydrochloride]
6.72 | CCN1C(=O)C(C)(C)C(=O)N(C)c2cc(OCCCN(CCn3ccc4ccoc4c3=O)Cc3ccc(C(F)(F)F)cc3)ccc21 [Example 395]
6.80 | CCN1C(=O)C(C)(C)C(=O)N(C)c2cc(OCCCN(CCn3ccc4ccoc4c3=O)Cc3ccc(C#N)cc3)ccc21 [Example 380]

Structure (SMILES) | pIC50
CCN1C(=O)C(C)(C)C(=O)N(C)c2cc(OCCCN(CCn3ccc4ccccc4c3=O)Cc3ccsc3)ccc21 [Example 125] | 6.72
CCN1C(=O)C(C)(C)C(=O)N(C)c2cc(OCCCN(CCn3ccc4ccoc4c3=O)Cc3cccs3)ccc21 [Example 417] | 6.74
CCN1C(=O)C(C)(C)C(=O)N(CC)c2cc(OCCCN(CCc3cccnc3)Cc3ccncc3)ccc21 [Example 14, 1,5-diethyl-3,3-dimethyl-7-{3-[(2-pyridin-3-ylethyl)pyridin-4-ylmethylamino]propoxy}-1,5-dihydrobenzo[b][1,4]diazepine-2,4-dione trihydrochloride] | 6.24
